We go through twelve compounds from patent US10407445B2, “Hepatitis C virus inhibitors” (ENANTA PHARMACEUTICALS, INC., priority 2013, dated 2019).

Common to all, as to format: cell-based
For one assay, the system named is HCV GT 1b replicon. Kind of assay: HCV replicon assay, stable GT 1b replicon (Renilla luciferase). The conditions noted are these: Hepatitis C virus, GT1B, 72 h. Put shortly: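 Stable Huh-7.5-based GT1b replicon (Con1-derived) carrying hRluc-Neo, 4000 cells/well seeded onto a sixteen-point half-log compound series in G418-free, phenol red-free medium. After 72 h, Renilla luciferase is read relative to DMSO controls; CC50 in the same cells by CellTiter-Glo.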
On the technique in general: Replicon systems follow genome replication, usually without infectious particles.

The subject of assay [1] is GT1a replicon encoding NS5A mutation M28T. The assay can be described thus: Transient replication assay, GT1a replicon with NS5A mutation M28T. The conditions noted are these: Hepatitis C virus, read-out: EC50 1a M28T.
Another assay concerns HCV GT 2a-J6 replicon. The assay can be described thus: HCV replicon assay, GT2a chimeric replicon expressing NS5A from GT2a strain J6. The settings on record: Hepatitis C virus, 72 h, read-out: EC50 2a J6. Put shortly:
(§1)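 Stable Huh-7.5 lines carried JFH-1 subgenomic replicons with hRluc-Neo reporter, in which NS5A was swapped for GT3a strain S52 or GT2a strain J6 NS5A. Renilla luciferase was read after 72 h relative to DMSO controls.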

Assay [2] deals with GT1a replicon encoding NS5A mutation L31V. Kind of assay: Transient replication assay, GT1a replicon with NS5A mutation L31V. The conditions noted are these: Hepatitis C virus, read-out: EC50 1a L31V.
For another assay, the system named is HCV GT 3a replicon. The assay can be described thus: HCV replicon assay, GT2a chimeric replicon expressing NS5A from GT3a strain S52. The conditions noted are these: Hepatitis C virus, 72 h, read-out: EC50 3a. The procedure, abridged: as §1
Assay [3] deals with GT1a replicon encoding NS5A mutation Y93H. The assay can be described thus: Transient replication assay, GT1a replicon with NS5A mutation Y93H. The settings on record: Hepatitis C virus, read-out: EC50 1a Y93H.

For the compound `COC(=O)N[C@H](C(=O)N1CCC[C@H]1c1nc2ccc3cc(-c4ccc5c(ccc6nc([C@@H]7C[C@@]8(CCCOC8)CN7C(=O)[C@@H](NC(=O)OC)C(C)C)[nH]c65)c4)ccc3c2[nH]1)C(C)C` [Compound 48], the EC50 (commonly the midpoint of the concentration-response curve) was 0.009 nM in the assay on HCV GT 1b replicon; 0.05 nM in assay [1]; 0.03 nM in the assay on HCV GT 2a-J6 replicon; 0.5 nM in assay [2]; 0.07 nM in the assay on HCV GT 3a replicon; 2 nM in assay [3].
`COC(=O)N[C@H](C(=O)N1C[C@@]2(CCOC2)C[C@H]1c1ncc(-c2ccc(-c3ccc4c(ccc5nc([C@@H]6C[C@]7(CCOC7)CN6C(=O)[C@@H](NC(=O)OC)C(C)C)[nH]c54)c3)cc2)[nH]1)C(C)C` [Compound 49]: the half-maximal effective concentration (EC50) is 0.009 nM in the assay on HCV GT 1b replicon; 1 nM in assay [1]; 23 nM with HCV GT 2a-J6 replicon; 5 nM in assay [2]; 5 nM in the assay on HCV GT 3a replicon; 12 nM in assay [3].
In the case of `COC(=O)N[C@H](C(=O)N1C[C@@]2(CCOC2)C[C@H]1c1ncc(-c2ccc(-c3ccc4c(ccc5nc([C@@H]6CCCN6C(=O)[C@@H](NC(=O)OC)C(C)C)[nH]c54)c3)cc2)[nH]1)C(C)C` [Compound 50], the half-maximal effective concentration (EC50) in the assay with HCV GT 1b replicon stood at 0.016 nM; in assay [1], 0.5 nM; in the assay on HCV GT 2a-J6 replicon it was 13 nM; in assay [2], 1 nM; in the assay on HCV GT 3a replicon, 10 nM; in assay [3], 7 nM.
With `COC(=O)N[C@H](C(=O)N1CCC[C@H]1c1ncc(-c2ccc(-c3ccc4c(ccc5nc([C@@H]6C[C@]7(CCOC7)CN6C(=O)[C@@H](NC(=O)OC)C(C)C)[nH]c54)c3)cc2)[nH]1)C(C)C` [Compound 51], the concentration for a half-maximal effect (EC50) in the assay on HCV GT 1b replicon came out at 0.016 nM; in assay [1], 0.1 nM; in the assay on HCV GT 2a-J6 replicon it was 4 nM; in assay [2], 0.4 nM; with HCV GT 3a replicon, 2 nM; in assay [3], 4 nM.
Turning to `COC(=O)N[C@H](C(=O)N1C[C@]2(CCCCO2)C[C@H]1c1nc(-c2ccc(-c3ccc4c(ccc5nc([C@@H]6CCCN6C(=O)[C@@H](NC(=O)OC)C(C)C)[nH]c54)c3)cc2)c[nH]1)C(C)C` [Example 2], the concentration giving a half-maximal response (EC50) in the assay with HCV GT 1b replicon amounted to 0.007 nM; in assay [1], 0.1 nM; in the assay with HCV GT 2a-J6 replicon it was 27 nM; in assay [2], 0.3 nM; in the assay with HCV GT 3a replicon, 1 nM; in assay [3] it was 9 nM.
`COC(=O)N[C@H](C(=O)N1C[C@@]2(CCCCO2)C[C@H]1c1nc(-c2ccc(-c3ccc4c(ccc5nc([C@@H]6CCCN6C(=O)[C@@H](NC(=O)OC)C(C)C)[nH]c54)c3)cc2)c[nH]1)C(C)C` [Example 3]: the 50% effective concentration (EC50) with HCV GT 1b replicon was determined as 0.04 nM; in assay [1] it was 6 nM; with HCV GT 2a-J6 replicon, 267 nM; in assay [2] it was 44 nM; with HCV GT 3a replicon it was 156 nM; in assay [3] it was 6 nM.
For `COC(=O)N[C@H](C(=O)N1C[C@]2(CCCO2)C[C@H]1c1ncc(-c2ccc(-c3ccc4c(ccc5nc([C@@H]6CCCN6C(=O)[C@@H](NC(=O)OC)C(C)C)[nH]c54)c3)cc2)[nH]1)C(C)C` [Example 81], the EC50 in the assay on HCV GT 1b replicon was found to be 0.013 nM; in assay [1], 0.3 nM; in the assay on HCV GT 2a-J6 replicon, 45 nM; in assay [2], 0.4 nM; with HCV GT 3a replicon, 3 nM; in assay [3], 15 nM.
Turning to `COC(=O)N[C@H](C(=O)N1C[C@@]2(CCCO2)C[C@H]1c1ncc(-c2ccc(-c3ccc4c(ccc5nc([C@@H]6CCCN6C(=O)[C@@H](NC(=O)OC)C(C)C)[nH]c54)c3)cc2)[nH]1)C(C)C` [Example 82], the concentration giving a half-maximal response (EC50) came to 0.008 nM in the assay on HCV GT 1b replicon; 14 nM in assay [1]; 40 nM in the assay with HCV GT 2a-J6 replicon; 46 nM in assay [2]; 5 nM in the assay on HCV GT 3a replicon; 5 nM in assay [3].
With `COC(=O)N[C@H](C(=O)N1CC2(CCOCC2)C[C@H]1c1ncc(-c2ccc(-c3ccc4c(ccc5nc([C@@H]6CCCN6C(=O)[C@@H](NC(=O)OC)C(C)C)[nH]c54)c3)cc2)[nH]1)C(C)C` [Example 83], the concentration giving a half-maximal response (EC50) worked out at 0.042 nM in the assay with HCV GT 1b replicon; 0.9 nM in assay [1]; 32 nM in the assay with HCV GT 2a-J6 replicon; 6 nM in assay [2]; 0.7 nM in the assay on HCV GT 3a replicon; 26 nM in assay [3].
With `COC(=O)N[C@H](C(=O)N1CCC[C@H]1c1nc2ccc3cc(-c4ccc5c(ccc6nc([C@@H]7CCCN7C(=O)[C@@H](NC(=O)OC)C(C)C)[nH]c65)c4)ccc3c2[nH]1)C(C)C` [Example 101], the EC50 in the assay on HCV GT 1b replicon was determined as 0.021 nM; in assay [1] it was 1 nM; with HCV GT 2a-J6 replicon it was 0.1 nM; in assay [2], 6 nM; with HCV GT 3a replicon, 0.05 nM; in assay [3], 25 nM.
With `COC(=O)N[C@H](C(=O)N1CCC[C@H]1c1ncc(-c2ccc(-c3ccc4c(ccc5nc([C@@H]6CCCN6C(=O)[C@@H](NC(=O)OC)C(C)C)[nH]c54)c3)cc2)[nH]1)C(C)C` [Example 102], the EC50 worked out at 0.014 nM with HCV GT 1b replicon; 1 nM in assay [1]; 1 nM in the assay on HCV GT 2a-J6 replicon; 8 nM in assay [2]; 0.06 nM with HCV GT 3a replicon; 22 nM in assay [3].
On to `COC(=O)N[C@H](C(=O)N1CCC[C@H]1c1nc2ccc(C#Cc3ccc4c(ccc5nc([C@@H]6CCCN6C(=O)[C@@H](NC(=O)OC)C(C)C)[nH]c54)c3)cc2[nH]1)C(C)C` [Example 103], for which the 50% effective concentration (EC50) in the assay on HCV GT 1b replicon was 0.004 nM; in assay [1] it was 6 nM; in the assay with HCV GT 2a-J6 replicon, 16 nM; in assay [2], 29 nM; in the assay with HCV GT 3a replicon, 0.3 nM; in assay [3] it was 112 nM.
